Data from US8192962B2, “Processes for detecting toxic substances” (Daikin Industries, Ltd., priority 2001, dated 2012).

Test system: Transport facilitation protein genes
Experiment: DNA chip mRNA expression in yeast, transport facilitation protein genes (Table 5)
Format: cell-based, Saccharomyces cerevisiae S288C
Experimental: Yeast (Saccharomyces cerevisiae S288C (α SUC2mal mel gap2 CUP1)) were incubated at 25° C. on YPD medium (yeast extract 1%, polypepton 2%, glucose 2%). One of toxic chemical substances was added to the cells at logarithmic growth phase, and the cells were further incubated for two hours. Cells were cultured without any chemical substance in the same condition, and were used as control. Concentrations of the chemical substances were defined to inhibit the growth of the yeast but not lead to death.
After completion of the incubation, the culture was centrifuged to collect the cells. To the cells, sodium acetate buffer (50 mM sodium acetate, 10 mM EDTA, 1% SDS) was added, and the mixture was shaken at 65° C. for five minutes, followed by returning to room temperature, and obtaining the supernatant, of which the procedures were repeated two times. To the supernatant, ½ amount of a solution of phenol/chloroform was added, and the mixture was centrifuged to give a supernatant, which was added with an equal amount of chloroform, and the mixture was centrifuged to give a supernatant. To the supernatant, an equal amount of isopropanol containing 0.3 M sodium acetate was added, and the mixture was allowed to stand at room temperature for 30 minutes, after which the mixture was centrifuged to give a sediment of the whole RNAs. Seventy % ethanol was added to the sediment, and the mixture was again centrifuged to give a sediment, which was then dried and dissolved in water. mRNA was isolated from the whole RNAs as followings. In view of the fact that a poly A chain is attached to the 3′ terminus of mRNA, a polynucleotide having a poly T structure which was immobilized on the surface of latex beads was used to trap the mRNA, and then the mRNA was washed and eluted with spine column (Oligotex-dT30<Super>mRNA Purification Kit, Takara). Reverse transcription of the mRNA was conducted with a reverse transcriptase (Super Script II Reverse Transcriptase; catalogue No. 18064-014, GibcoBRL) using fluorescence-labeled nucleotides to give cDNAs that were introduced with Cy3-dUTP or Cy5-dUTP during the reverse transcription.
The labeled cDNAs were dissolved in TE buffer (10mM Tris-HCl/1 mM EDTA, pH8.0), and the solution was dropped on the DNA chip containing the whole genes of yeast (DNA Chip Research Inc. Japan) so that the cDNAs were hybridized on the DNA chip at 65° C. for over 12 hours. The fluoresces intensity of the DNA chip was read with a scanner, and the ratio relative to the fluorescence intensity resulting from the absence of chemical substance was estimated as the following, which is shown in Tables 1 to 9: […]

## O=[N+]([O-])c1cc[n+]([O-])c2ccccc12 [(5), 4-nitroquinolin-N-oxide]
Yeast gene YGR281W
  The level of expressed mRNA in the presence of chemical substance/The level of expressed mRNA in the absence of chemical substance: 0.6
Yeast gene YHL035C
  The level of expressed mRNA in the presence of chemical substance/The level of expressed mRNA in the absence of chemical substance: 0.9
Yeast gene YHL040C
  The level of expressed mRNA in the presence of chemical substance/The level of expressed mRNA in the absence of chemical substance: 1.1
Yeast gene YHL047C
  The level of expressed mRNA in the presence of chemical substance/The level of expressed mRNA in the absence of chemical substance: 1.2
Yeast gene YHR026W
  The level of expressed mRNA in the presence of chemical substance/The level of expressed mRNA in the absence of chemical substance: 1.1
Yeast gene YHR092C
  The level of expressed mRNA in the presence of chemical substance/The level of expressed mRNA in the absence of chemical substance: 1.4
Yeast gene YHR094C
  The level of expressed mRNA in the presence of chemical substance/The level of expressed mRNA in the absence of chemical substance: 1.1
Yeast gene YHR175W
  The level of expressed mRNA in the presence of chemical substance/The level of expressed mRNA in the absence of chemical substance: 0.9
Yeast gene YIL006W
  The level of expressed mRNA in the presence of chemical substance/The level of expressed mRNA in the absence of chemical substance: 0.8
Yeast gene YIL022W
  The level of expressed mRNA in the presence of chemical substance/The level of expressed mRNA in the absence of chemical substance: 0.8
Yeast gene YIL056W
  The level of expressed mRNA in the presence of chemical substance/The level of expressed mRNA in the absence of chemical substance: 1.2
Yeast gene YIL088C
  The level of expressed mRNA in the presence of chemical substance/The level of expressed mRNA in the absence of chemical substance: 1.6
Yeast gene YJL034W
  The level of expressed mRNA in the presence of chemical substance/The level of expressed mRNA in the absence of chemical substance: 1.2
Yeast gene YJL212C
  The level of expressed mRNA in the presence of chemical substance/The level of expressed mRNA in the absence of chemical substance: 1.2
Yeast gene YJL219W
  The level of expressed mRNA in the presence of chemical substance/The level of expressed mRNA in the absence of chemical substance: 1.2
Yeast gene YJR077C
  The level of expressed mRNA in the presence of chemical substance/The level of expressed mRNA in the absence of chemical substance: 0.9
Yeast gene YJR106W
  The level of expressed mRNA in the presence of chemical substance/The level of expressed mRNA in the absence of chemical substance: 0.9
Yeast gene YJR121W
  The level of expressed mRNA in the presence of chemical substance/The level of expressed mRNA in the absence of chemical substance: 0.8
Yeast gene YKL016C
  The level of expressed mRNA in the presence of chemical substance/The level of expressed mRNA in the absence of chemical substance: 1.5
Yeast gene YKL146W
  The level of expressed mRNA in the presence of chemical substance/The level of expressed mRNA in the absence of chemical substance: 1.0
Yeast gene YKR039W
  The level of expressed mRNA in the presence of chemical substance/The level of expressed mRNA in the absence of chemical substance: 1.0
Yeast gene YKR067W
  The level of expressed mRNA in the presence of chemical substance/The level of expressed mRNA in the absence of chemical substance: 1.3
Yeast gene YLL028W
  The level of expressed mRNA in the presence of chemical substance/The level of expressed mRNA in the absence of chemical substance: 0.9
Yeast gene YLR081W
  The level of expressed mRNA in the presence of chemical substance/The level of expressed mRNA in the absence of chemical substance: 1.0
Yeast gene YLR295C
  The level of expressed mRNA in the presence of chemical substance/The level of expressed mRNA in the absence of chemical substance: 2.2
Yeast gene YLR348C
  The level of expressed mRNA in the presence of chemical substance/The level of expressed mRNA in the absence of chemical substance: 0.9
Yeast gene YLR378C
  The level of expressed mRNA in the presence of chemical substance/The level of expressed mRNA in the absence of chemical substance: 1.0
Yeast gene YMR011W
  The level of expressed mRNA in the presence of chemical substance/The level of expressed mRNA in the absence of chemical substance: 0.9
Yeast gene YMR162C
  The level of expressed mRNA in the presence of chemical substance/The level of expressed mRNA in the absence of chemical substance: 0.9
Yeast gene YMR203W
  The level of expressed mRNA in the presence of chemical substance/The level of expressed mRNA in the absence of chemical substance: 0.6
Yeast gene YNL055C
  The level of expressed mRNA in the presence of chemical substance/The level of expressed mRNA in the absence of chemical substance: 0.9
Yeast gene YNL259C
  The level of expressed mRNA in the presence of chemical substance/The level of expressed mRNA in the absence of chemical substance: 1.1
Yeast gene YNR072W
  The level of expressed mRNA in the presence of chemical substance/The level of expressed mRNA in the absence of chemical substance: 1.0
Yeast gene YOL119C
  The level of expressed mRNA in the presence of chemical substance/The level of expressed mRNA in the absence of chemical substance: 1.5
Yeast gene YOL156W
  The level of expressed mRNA in the presence of chemical substance/The level of expressed mRNA in the absence of chemical substance: 1.2
Yeast gene YOL163W
  The level of expressed mRNA in the presence of chemical substance/The level of expressed mRNA in the absence of chemical substance: 0.9
Yeast gene YOR035C
  The level of expressed mRNA in the presence of chemical substance/The level of expressed mRNA in the absence of chemical substance: 1.0
Yeast gene YOR130C
  The level of expressed mRNA in the presence of chemical substance/The level of expressed mRNA in the absence of chemical substance: 1.8
Yeast gene YOR153W
  The level of expressed mRNA in the presence of chemical substance/The level of expressed mRNA in the absence of chemical substance: 1.0
Yeast gene YOR270C
  The level of expressed mRNA in the presence of chemical substance/The level of expressed mRNA in the absence of chemical substance: 0.8
Yeast gene YOR273C
  The level of expressed mRNA in the presence of chemical substance/The level of expressed mRNA in the absence of chemical substance: 1.1
Yeast gene YOR316C
  The level of expressed mRNA in the presence of chemical substance/The level of expressed mRNA in the absence of chemical substance: 1.0
Yeast gene YOR328W
  The level of expressed mRNA in the presence of chemical substance/The level of expressed mRNA in the absence of chemical substance: 1.0
Yeast gene YOR332W
  The level of expressed mRNA in the presence of chemical substance/The level of expressed mRNA in the absence of chemical substance: 0.9
Yeast gene YOR348C
  The level of expressed mRNA in the presence of chemical substance/The level of expressed mRNA in the absence of chemical substance: 0.9
Yeast gene YPL036W
  The level of expressed mRNA in the presence of chemical substance/The level of expressed mRNA in the absence of chemical substance: 1.3
Yeast gene YPL134C
  The level of expressed mRNA in the presence of chemical substance/The level of expressed mRNA in the absence of chemical substance: 1.4
Yeast gene YPL265W
  The level of expressed mRNA in the presence of chemical substance/The level of expressed mRNA in the absence of chemical substance: 1.0
Yeast gene YPL271W
  The level of expressed mRNA in the presence of chemical substance/The level of expressed mRNA in the absence of chemical substance: 1.4
Yeast gene YPR124W
  The level of expressed mRNA in the presence of chemical substance/The level of expressed mRNA in the absence of chemical substance: 2.0
Yeast gene YPR192W
  The level of expressed mRNA in the presence of chemical substance/The level of expressed mRNA in the absence of chemical substance: 1.2
Yeast gene YPR194C
  The level of expressed mRNA in the presence of chemical substance/The level of expressed mRNA in the absence of chemical substance: 1.3
